According to ChEMBL document CHEMBL4052647, “Synthesis and pharmacological evaluation of novel chromone derivatives as balanced multifunctional agents against Alzheimer's disease” (Bioorg Med Chem, 2017):
Active and inactive are the calls of the source. The calls are words filed in the database; no cut-off is given here.

What was measured:
[1] = Metal chelating activity assessed as inhibition of Cu2+-induced amyloid beta (1 to 42 residues) aggregation by measuring reduction in amyloid fibrils at 50 uM […] by uranyl acetate staining based transmission electron microscopic analysis
[2] = Metal chelating activity assessed as inhibition of Cu2+-induced amyloid beta (1 to 42 residues) aggregation at 50 uM after 24 hrs by thioflavin-T fluorescence assay (reference value: 142%)
PC-12 [3] = assay: Cytotoxicity against rat PC12 cells at 20 uM after 24 hrs by MTT assay; type: cell-based; settings: pc-12, 24 h
[4] = biological target: Amyloid-beta precursor protein (Homo sapiens) (UniProt P05067); assay: Inhibition of HFIP-pretreated amyloid beta (1 to 42) (unknown origin) self-induced aggregation at 20 uM after 46 to 48 hrs by thioflavin-T fluorescence assay relative to control
Chain of Amyloid-beta precursor protein (Homo sapiens) (P05067 whole entry): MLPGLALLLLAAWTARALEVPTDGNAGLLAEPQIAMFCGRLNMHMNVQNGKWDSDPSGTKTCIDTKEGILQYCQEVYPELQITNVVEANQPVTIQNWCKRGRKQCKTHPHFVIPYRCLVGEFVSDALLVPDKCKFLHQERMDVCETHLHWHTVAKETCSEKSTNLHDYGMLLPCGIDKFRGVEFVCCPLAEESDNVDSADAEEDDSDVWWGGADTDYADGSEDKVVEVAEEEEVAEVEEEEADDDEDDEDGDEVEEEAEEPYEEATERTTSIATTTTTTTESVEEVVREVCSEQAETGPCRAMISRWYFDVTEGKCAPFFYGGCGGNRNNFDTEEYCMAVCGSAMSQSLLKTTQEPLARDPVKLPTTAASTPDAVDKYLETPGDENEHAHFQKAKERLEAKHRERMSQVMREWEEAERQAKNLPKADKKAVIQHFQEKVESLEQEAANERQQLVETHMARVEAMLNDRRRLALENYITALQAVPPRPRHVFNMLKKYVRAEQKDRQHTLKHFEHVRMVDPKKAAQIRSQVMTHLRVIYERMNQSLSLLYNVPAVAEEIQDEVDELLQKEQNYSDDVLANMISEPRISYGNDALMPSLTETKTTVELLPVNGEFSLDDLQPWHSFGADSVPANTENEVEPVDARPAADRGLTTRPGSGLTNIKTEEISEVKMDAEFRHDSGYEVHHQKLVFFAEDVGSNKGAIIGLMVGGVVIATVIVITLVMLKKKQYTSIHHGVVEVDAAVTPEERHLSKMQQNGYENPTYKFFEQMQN

Homo sapiens = species on record: Homo sapiens; assay: Selectivity index, ratio of IC50 for recombinant human MAO-A expressed in baculovirus infected BTI insect cells to IC50 for recombinant human MAO-B expressed in baculovirus infected BTI insect cells
[5] = biological target: T1, Amine oxidase [flavin-containing] A (Homo sapiens, UniProt P21397); assay: Inhibition of recombinant human MAO-A expressed in baculovirus infected BTI insect cells using p-tyramine as substrate pretreated for 15 mins followed by substrate addition after 20 mins by Amplex red reagent based fluorimetric method
T1 sequence (P21397 whole entry): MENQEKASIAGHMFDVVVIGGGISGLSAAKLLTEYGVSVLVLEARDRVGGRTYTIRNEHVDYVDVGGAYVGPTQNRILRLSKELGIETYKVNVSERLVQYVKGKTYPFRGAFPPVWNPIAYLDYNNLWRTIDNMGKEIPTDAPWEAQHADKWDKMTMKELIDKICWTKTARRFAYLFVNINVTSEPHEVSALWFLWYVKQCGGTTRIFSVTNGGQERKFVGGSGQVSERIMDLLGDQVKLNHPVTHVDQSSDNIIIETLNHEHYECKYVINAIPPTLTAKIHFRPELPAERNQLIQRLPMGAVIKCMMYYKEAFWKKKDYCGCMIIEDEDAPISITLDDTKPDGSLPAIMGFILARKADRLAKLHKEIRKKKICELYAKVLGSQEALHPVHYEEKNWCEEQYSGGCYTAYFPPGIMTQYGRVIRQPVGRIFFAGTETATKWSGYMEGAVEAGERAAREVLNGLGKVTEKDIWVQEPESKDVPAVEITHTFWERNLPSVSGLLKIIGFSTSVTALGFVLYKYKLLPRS

[6] = biological target: T2, Amine oxidase [flavin-containing] B (Homo sapiens, UniProt P27338); assay: biochemical; type: cell-based
T2 sequence (P27338 whole entry): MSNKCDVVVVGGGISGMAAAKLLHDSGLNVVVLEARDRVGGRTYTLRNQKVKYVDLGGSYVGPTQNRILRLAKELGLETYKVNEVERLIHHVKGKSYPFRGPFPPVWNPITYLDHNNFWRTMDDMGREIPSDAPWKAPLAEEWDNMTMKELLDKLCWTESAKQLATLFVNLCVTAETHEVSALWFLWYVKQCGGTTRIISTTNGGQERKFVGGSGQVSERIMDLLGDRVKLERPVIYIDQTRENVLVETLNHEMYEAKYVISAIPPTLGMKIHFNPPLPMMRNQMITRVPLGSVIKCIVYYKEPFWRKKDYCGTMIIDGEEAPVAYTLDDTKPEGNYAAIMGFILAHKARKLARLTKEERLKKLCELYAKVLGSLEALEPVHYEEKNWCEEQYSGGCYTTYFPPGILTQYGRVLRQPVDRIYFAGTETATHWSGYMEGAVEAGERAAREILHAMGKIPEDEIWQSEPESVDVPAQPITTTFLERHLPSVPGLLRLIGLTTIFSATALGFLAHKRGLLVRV
Description: Inhibition of recombinant human MAO-B expressed in baculovirus infected BTI insect cells using p-tyramine as substrate pretreated for 15 mins followed by substrate addition after 20 mins by Amplex red reagent based fluorimetric method

[7] = Antioxidant activity assessed as trolox equivalent of […]-induced radical scavenging activity at 1 to 10 uM preincubated for 15 mins followed by AAPH addition measured every minute for 120 mins by ORAC fluorescein assay; type: functional
physchem [8] = settings: PAMPA
PC-12 [9] = assay: Neuroprotective activity against H2O2-induced cell death in rat PC12 cells assessed as increase in cell viability at 10 uM pretreated for 24 hrs followed by H2O2 induction after 24 hrs by MTT assay; type: functional, cell-based
PC-12 [10] = assay: Neuroprotective activity against H2O2-induced cell death in rat PC12 cells assessed as increase in cell viability at 1 to 5 uM pretreated for 24 hrs followed by H2O2 induction after 24 hrs by MTT assay; type: functional, cell-based
[11] = Metal chelating activity of the compound assessed as formation of ferrous-compound complex at 50 uM after 30 mins by UV-vis spectrophotometric method
[12] = Metal chelating activity of the compound assessed as formation of zinc-compound complex at 50 uM after 20 mins by fluorescence emission spectral analysis
PC-12 [13] = assay: Neuroprotective activity against H2O2-induced oxidative stress in rat PC12 cells assessed as reduction in intracellular reactive oxygen species level after 24 hrs by DCFH-DA probe based flow cytometric analysis; type: functional, cell-based
[14] = Metal chelating activity of the compound assessed as formation of ferrous-compound complex at 50 uM after 20 mins by fluorescence emission spectral analysis
[15] = Metal chelating activity of the compound assessed as formation of ferric-compound complex at 50 uM after 30 mins by UV-vis spectrophotometric method
[16] = Metal chelating activity of the compound assessed as formation of Cu2+-compound complex at 50 uM after 20 mins by fluorescence emission spectral analysis
PC-12 [17] = assay: Neuroprotective activity against H2O2-induced cell death in rat PC12 cells assessed as increase in cell viability at 20 uM pretreated for 24 hrs followed by H2O2 induction after 24 hrs by MTT assay; type: functional, cell-based
[18] = Metal chelating activity assessed as mole fraction of compound required to show 1:1 stoichiometry for Cu2+-compound complex by Job's plot method
[19] = Metal chelating activity of the compound assessed as formation of Cu2+-compound complex at 50 uM after 30 mins by UV-vis spectrophotometric method
[20] = Metal chelating activity of the compound assessed as formation of ferric-compound complex at 50 uM after 20 mins by fluorescence emission spectral analysis
[21] = biological target: Amyloid-beta precursor protein (Homo sapiens) (UniProt P05067); assay: Potency index, ratio of compound effect to curcumin effect for inhibition of HFIP-pretreated amyloid beta (1 to 42) (unknown origin) self-induced aggregation at 20 uM
physchem [22] = settings: PAMPA, pH 7.4

SMILES	inhibition [4]	IC50 [5]	IC50 [6]	Activity (PC-12 [3])	Ratio IC50 (Homo sapiens)	Activity [7]	other results
Oc1c(I)cc(Cl)c2cccnc12							inhibition [1]: Active; inhibition [2]: 47.7%
Cc1ccc(/N=C/c2coc3ccc(C)cc3c2=O)c(O)c1	45.6%	20.8 µM	21.4 µM	Non-Toxic	0.97	2.48 equiv	
Oc1ccc(/C=C/c2cc(O)cc(O)c2)cc1	57.2%						inhibition [1]: Active; inhibition [2]: 63.3%
O=c1c(/C=N/c2ncccc2O)coc2ccccc12	70.8%	7.41 µM	2.23 µM	Non-Toxic		2.23 equiv	
Cc1c(C)c2c(c(C)c1O)CCC(C)(C(=O)O)O2 (configuration not stated)							Activity (PC-12 [9]): Active
COc1ccc2[nH]cc(CCNC(C)=O)c2c1						2.05 equiv	
O=c1c(/C=N/c2ncccc2O)coc2ccc(Br)cc12	69.8%	9.81 µM	2.92 µM	Non-Toxic	3.31	2.97 equiv	
Cc1ccc2occ(/C=N/c3cc([N+](=O)[O-])ccc3O)c(=O)c2c1	71.2%	7.27 µM	1.64 µM	Non-Toxic	4.43	2.73 equiv	
Cc1ccc2occ(/C=N/c3ncccc3O)c(=O)c2c1	63.4%	7.35 µM	2.03 µM	Non-Toxic	3.62	2.03 equiv	
Cc1ccc(O)c(/N=C/c2coc3ccc(Br)cc3c2=O)c1	89.5%	7.14 µM	1.12 µM	Non-Toxic	6.38	0.784 equiv	Ratio [21]: 1.9
Cc1ccc(/N=C/c2coc3ccccc3c2=O)c(O)c1	75.2%	6.26 µM	14.3 µM	Non-Toxic	0.44	2.26 equiv	
NCCc1ccc(O)c(O)c1 [DOPAMINE]							Papp at 16 h (physchem [8]): 1.32 ×10⁻⁶ cm/s; Papp at 18 h, 25 ug/ml (physchem [22]): 0.8 ×10⁻⁶ cm/s
CCn1cc(C(=O)O)c(=O)c2cc(F)c(N3CCNC(C)C3)c(F)c21 (configuration not stated) [LOMEFLOXACIN]							Papp at 16 h (physchem [8]): 3.1 ×10⁻⁶ cm/s; Papp at 18 h, 25 ug/ml (physchem [22]): 1.9 ×10⁻⁶ cm/s
O=c1c(/C=N/c2ccccc2O)coc2ccccc12	65.2%	6.81 µM	31.5 µM	Non-Toxic	0.22	2.39 equiv	

More lines, in order of falling IC50 [5], values ahead:

inhibition [4]	IC50 [5]	IC50 [6]	SMILES	Activity (PC-12 [3])	Ratio IC50 (Homo sapiens)	Activity [7]	other results
75.1%	5.12 µM	0.816 µM	Cc1ccc(O)c(/N=C/c2coc3ccc(C)cc3c2=O)c1	Non-Toxic	6.21	3.62 equiv	Papp at 16 h (physchem [8]): 4.94 ×10⁻⁶ cm/s; Activity (PC-12 [10]): Active; Activity [11]: Active; Activity [12]: Active; Activity (PC-12 [13]): Dose-dependent effect; Activity [14]: Active; inhibition [1]: Active; Activity [15]: Active; Activity [16]: Active; Activity (PC-12 [17]): inactive; Activity (PC-12 [9]): inactive; inhibition [2]: 60.3%; Activity [18]: 0.55 molar ratio; Activity [19]: Active; Activity [20]: Active
64.5%	4.65 µM	1.78 µM	O=c1c(/C=N/c2cc(F)ccc2O)coc2ccccc12	Non-Toxic	2.61	2.6 equiv	
72.1%	4.55 µM	3.28 µM	O=c1c(/C=N/c2cc(Cl)ccc2O)coc2ccc(Br)cc12	Non-Toxic	1.39	2.16 equiv	
68.1%	4.47 µM	2.27 µM	O=c1c(/C=N/c2cccc(Cl)c2O)coc2ccc(Br)cc12	Non-Toxic	1.97	2.6 equiv	Papp at 16 h (physchem [8]): 4.81 ×10⁻⁶ cm/s
87.3%	3.83 µM	2.34 µM	Cc1ccc2occ(/C=N/c3cc(F)ccc3O)c(=O)c2c1	Non-Toxic	1.64	2.92 equiv	
66.5%	3.35 µM	6.42 µM	O=c1c(/C=N/c2cc3ccccc3cc2O)coc2ccccc12	Non-Toxic	0.52	1.82 equiv	
58.1%	3.34 µM	1.13 µM	Cc1ccc(O)c(/N=C/c2coc3ccccc3c2=O)c1	Non-Toxic	2.96	2.43 equiv	
87.6%	3.18 µM	1.29 µM	O=c1c(/C=N/c2ccc(Cl)cc2O)coc2ccc(Br)cc12	Non-Toxic	2.47	1.92 equiv	
79.1%	3.09 µM	0.825 µM	O=c1c(/C=N/c2cc(F)ccc2O)coc2ccc(Br)cc12	Non-Toxic	3.75	2.68 equiv	
71.5%	2.72 µM	0.764 µM	O=c1c(/C=N/c2ccc(F)cc2O)coc2ccc(Br)cc12	Non-Toxic	3.56	2.73 equiv	
48.3%	2.62 µM	0.915 µM	Cc1ccc2occ(/C=N/c3ccc(Cl)cc3O)c(=O)c2c1	Non-Toxic	2.86	3.41 equiv	Papp at 16 h (physchem [8]): 5.57 ×10⁻⁶ cm/s; Activity (PC-12 [9]): Active
71.9%	2.15 µM	0.634 µM	Cc1ccc2occ(/C=N/c3cc(Cl)ccc3O)c(=O)c2c1	Non-Toxic	3.39	2.61 equiv	
68.1%	1.94 µM	19.2 µM	O=c1c(/C=N/c2cc(Cl)ccc2O)coc2ccccc12	Non-Toxic	0.11	2.24 equiv	
79.5%	1.65 µM	14.5 µM	O=c1c(/C=N/c2cccc(Cl)c2O)coc2ccccc12	Non-Toxic	0.11	2.01 equiv	
51.5%	1.42 µM	1.78 µM	O=c1c(/C=N/c2ccc(Cl)cc2O)coc2ccccc12	Non-Toxic	0.8	2.36 equiv	
